Test results: PMC10896388, “Hybrid Allosteric Modulators of M1 Muscarinic Receptors Enhance Acetylcholine Efficacy and Decrease Locomotor Activity and Turning Behaviors in Zebrafish” (Research Square, 2024)
“Also recorded” adds a separate entry of the source. Read-outs that look alike come from different tables or passages of the source.

What was measured:
[1] = biological target: T1, human M1 muscarinic receptors (Homo sapiens, UniProt P11229); test: [3H]-arachidonic acid release in CHO cells expressing M1 receptors, with and without ACh; type: cell-based; set-up: expressed in transfected cells; host or cells: CHO cells (stably transfected CHO-hM1, from Mark Brann's laboratory, NIH); conditions: for intrinsic agonist activity (in words): [3H]AA release in the absence of ACh, 10 µM; for modulation of ACh response (in words): modulators at 10 µM (amiodarone 30 µM)
T1 sequence (P11229 1-460): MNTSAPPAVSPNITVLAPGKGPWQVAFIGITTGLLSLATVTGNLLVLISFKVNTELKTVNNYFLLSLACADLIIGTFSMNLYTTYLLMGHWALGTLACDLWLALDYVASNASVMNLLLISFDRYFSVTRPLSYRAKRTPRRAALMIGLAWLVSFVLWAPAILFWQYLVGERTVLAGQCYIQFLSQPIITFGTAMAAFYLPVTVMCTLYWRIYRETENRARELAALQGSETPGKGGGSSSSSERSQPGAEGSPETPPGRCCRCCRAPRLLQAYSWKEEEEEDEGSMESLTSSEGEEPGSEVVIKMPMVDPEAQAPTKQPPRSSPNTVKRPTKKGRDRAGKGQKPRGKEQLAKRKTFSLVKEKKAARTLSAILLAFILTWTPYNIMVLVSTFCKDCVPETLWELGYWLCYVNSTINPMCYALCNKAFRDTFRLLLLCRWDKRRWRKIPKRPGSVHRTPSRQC
Description: CHO cells expressing human M1 muscarinic receptors were cultured at 37°C in a 5% CO2 atmosphere in F12 medium supplemented with 5% fetal bovine serum, 100 units/mL penicillin, and 100µg/mL streptomycin. These cells were obtained from Mark Brann’s laboratory when they were at NIH and have been in use by us and others for many years.[49]
Measurement of [^3H]AA release was performed as described in Stahl and Ellis.[24] Stably transfected CHO-hM1 cells were seeded on 24-well plates (Greiner Bio-One GmbH, Frickenhausen, Germany) at a density of 5.0 × 10^4 cells/well in 0.5 ml of F-12 medium. Cells were incubated until they attached (approximately 3 h), followed by the addition of [^3H]AA to a final concentration of 0.05 µCi of [^3H]AA per well. The cells were then grown for 16 to 20 h before the assay was performed. [^3H]AA release was measured in Eagle’s basal medium with 20 mM HEPES and 2 mg/ml fatty acid-free bovine serum albumin (EM-BSA). Cells were rinsed twice with EM-BSA, followed by the addition of EM-BSA media containing experimental agents and incubated for 1 h at 37°C. The assay was terminated by aspiration of the media, and the amount of [^3H]AA released was determined by liquid scintillation counting (Beckman-Coulter LS6500). […]
Tabulated [^3H]AA release data are represented as a fraction of maximal release elicited by ACh or as the fraction of release elicited by the relevant concentration of ACh alone, as indicated. Dose-response curves were normalized to the maximal response of ACh without allosteric ligand. Where indicated, response curves were analyzed using the empirical four-parameter equation: […] where X is the concentration of the ligand used, Y is the amount of response, C50 is the concentration of the ligand that produces 50% of the maximal effect, Top and Bottom are the top and bottom plateaus of the curve, and n is related to the Hill slope for the curve. Where indicated, families of response curves were analyzed according to an allosteric operational model:[50],[51]

[2] = test system: wild-type (AB) zebrafish (Danio rerio); test: Maximum tolerated concentration (MTC) determination in zebrafish larvae; type: in vivo; conditions: for MTC (maximum tolerated concentration): 5 dpf zebrafish larvae, after 24-hr exposure; for signs of toxicity (in words): zebrafish, concentrations up to 30 μM, the highest concentration tested
Description: Determination of maximum tolerated concentration (adapted from Berghmans)[52] was completed by placing 5 days post fertilization (dpf) wild-type zebrafish larvae in a 24 well plate at 6 fish per well, and one compound concentration per well. […] Death was determined by the absence of heartbeat. Additional endpoints were used to assess toxicity at non-lethal concentrations such as startle capacity (poke stimulus), abnormalities in swimming behavior (loss of dorsoventral balance), and gross morphological deformities (bent body). […] The MTC determination was used to select three doses of each compound (low, medium, high dose) to be used in behavioral assays.

[3] = test system: wild-type (AB) zebrafish (Danio rerio); type: in vivo; conditions: zebrafish larvae; 30-minute spontaneous swimming period; mean ± s.e.m., N = 12; test concentration not given
[4] = test system: wild-type (AB) zebrafish (Danio rerio); test: animal or person; type: in vivo; conditions: for effect on locomotor activity and turning behaviors (in words) / concentration with significant effects on zebrafish behavior: AB zebrafish; for effect on locomotor activity and turning behaviors (in words): 30-minute spontaneous swimming period; for concentration with significant effects on zebrafish behavior: compared with BQCA; for EC50: Danio rerio, AB zebrafish larvae; for Therap. Index: zebrafish, apparently MTC / MEC
Description: The movement of larval zebrafish was monitored with the Noldus behavior recording system (Noldus Information Technology, Leesburg VA) and quantified using EthoVision® XT 15 software (Noldus Information Technology, Leesburg VA). Five-dpf zebrafish larvae were exposed to a range of nonlethal concentrations of compounds in a 24-well plate with appropriate controls. The plate was immediately placed in the incubator for a 30-minute exposure period. After 30 minutes, the plate was transferred to the Noldus system and swimming behavior was recorded in 100% light for 30 minutes to measure spontaneous swimming behavior. The light was switched off for 10 minutes (dark period) and then switched on for 10 minutes (light period), which was then repeated for two additional cycles. In total, the larvae were exposed to three cycles of alternating 10-minute dark and light periods (100% darkness-to-100% light). Each drug challenge was conducted on three separate plates with n = 6 larvae/dose/plate.
Absolute turn angle (TA) and angular velocity provided measures of the extent of turning behavior, while the intra-individual variance of turn angle quantified how consistently (low variance) or inconsistently (high variance) fish turned. A lowered intra-individual variance of turning reflected repeatedly performing the same turning behavior, a stereotypy.[53]
All data for exposure and the behavioral end points were analyzed by one-way ANOVA (factor: drug concentration) followed by a Dunnett’s multiple comparisons test for post hoc significance between drug concentration and control group. Statistically significant differences are noted as follows; *, p < 0.05; **, p < 0.01; ***, p < 0.001.

[5] = biological target: T1, human M1 muscarinic receptors; test: Full ACh dose-response curves of [3H]AA release fitted to an allosteric operational model
Description: Tabulated [^3H]AA release data are represented as a fraction of maximal release elicited by ACh or as the fraction of release elicited by the relevant concentration of ACh alone, as indicated. Dose-response curves were normalized to the maximal response of ACh without allosteric ligand. Where indicated, response curves were analyzed using the empirical four-parameter equation: Y=Top+Bottom−Top/1+X/C50^n where X is the concentration of the ligand used, Y is the amount of response, C50 is the concentration of the ligand that produces 50% of the maximal effect, Top and Bottom are the top and bottom plateaus of the curve, and n is related to the Hill slope for the curve. Where indicated, families of response curves were analyzed according to an allosteric operational model:[50],[51]
where EM is the maximal response; A is the concentration of ACh; B is the concentration of the allosteric ligand; τA and τB represent the operational efficacies of A and B, respectively; KA and KB are the equilibrium dissociation constants of A and B; and α and β represent the cooperativities between A and B in terms of binding and activation, respectively. Curve-fitting was carried out with GraphPad Prism, version 5.0 or 6.0 (San Diego CA).

[6] = best-fit parameter, allosteric operational model, Em set to 2.0, ACh as agonist
[7] = read-out: EC50 for decreasing locomotor activity
[8] = read-out: EC50 for decreasing repetitive behaviors (increasing angular velocity)

| Molecule | intrinsic agonist activity (in words) [1] | increase in mAChR activity compared to treatment with ACh alone ([1]; [3H]AA release, CHO-hM1, predominantly at higher doses of ACh (Table 2, not available)) [%] | MTC (maximum tolerated concentration) [2] [µM] | Angular Velocity, percentage change relative to controls [3] [%] | Distance Moved, percentage change relative to controls [3] [%] | Variance Turn Angle, percentage change relative to controls [3] [%] | modulation of ACh response (in words) ([1]; [3H]AA release, CHO-hM1) | effect on locomotor activity and turning behaviors (in words) [4] | Kd [5] [µM] | Activation cooperativity, A-B, β [5, 6] | Binding cooperativity, A-B, α [5, 6] | Operational Efficacy-B, τB [5, 6] | concentration with significant effects on zebrafish behavior [4] [µM] | EC50 [4, 7] [µM] | EC50 [4, 8] [µM] | Therap. Index [4] | Kb [5] [µM] | signs of toxicity (in words) [2] | MEC ([4]; zebrafish larvae, locomotor behaviors, abbreviation not defined in the paper) [µM] |
| --- | --- | --- | --- | --- | --- | --- | --- | --- | --- | --- | --- | --- | --- | --- | --- | --- | --- | --- | --- |
| CCCCc1oc2ccccc2c1C(=O)c1cc(I)c(OCCN(CC)C(=O)c2ccccc2)c(I)c1 [Compound 5b, N-(2-(4-(2-butylbenzofuran-3-carbonyl)-2,6-diiodophenoxy)ethyl)-N-ethylbenzamide] | lacked intrinsic activity | 80 | 10 | 80.4 ± 11.5 | 87.7 ± 13.5 | 77.8 ± 9.3 |  |  |  |  |  |  |  |  |  |  |  |  |  |
| CCN(CC)CCOc1ccc(CN2C(=O)C(=O)c3ccccc32)cc1 [Compound 7, 1-(4-(2-(diethylamino)ethoxy)benzyl)indoline-2,3-dione] | lacked intrinsic activity |  | 10 |  |  |  | primarily decreased potency and slightly enhanced the efficacy of ACh activity; also recorded: decreased ACh potency with little impact on ACh efficacy | not effective in reducing locomotor activity or elevating angular velocity or variance of turn angle | 0.631 | 0.99 ± 0.12 | 0.18 ± 0.095 | 0.032 ± 0.02 |  |  |  |  |  |  |  |
| COc1c(I)cc(CN2C(=O)C(=O)c3ccccc32)cc1I [Compound 8a, 1-(3,5-diiodo-4-methoxybenzyl)indoline-2,3-dione] |  |  | > 30 |  |  |  | significant enhancement of ACh activity; also recorded: dramatically enhanced ACh efficacy | reduced locomotor activity | 0.55 |  | 0.69 ± 0.24 | 0.17 ± 0.03 | 1 | 5.6 | 2.6 | > 100 | 0.55 | neither produced any signs of toxicity |  |
| COc1c(Br)cc(CN2C(=O)C(=O)c3ccccc32)cc1Br [Compound 8c, 1-(3,5-dibromo-4-methoxybenzyl)indoline-2,3-dione] |  |  | > 30 |  |  |  | dramatically enhanced ACh efficacy |  | 2.95 |  | 0.98 ± 0.39 | 0.33 ± 0.06 | 1 | 1 | 1.1 |  | 3 | neither produced any signs of toxicity |  |
| VU0238408 [reference compound] |  |  | 30 | 180.1 ± 20.3 | 34.6 ± 4.0 | 146.6 ± 12.4 |  |  |  |  |  |  |  |  |  | 30 |  |  | 1 |
